Laboratory results from paper PMC6796659, “Topoisomerase IB poisons induce histone H2A phosphorylation as a response to DNA damage in Leishmania infantum” (International Journal for Parasitology: Drugs and Drug …, 2019).
Like-named read-outs stand apart in the source and are kept apart here.

How the values were obtained:
[1] = Cytotoxicity on uninfected mouse splenocytes (Alamar Blue); type: cell-based; conditions: BALB/c, freshly isolated uninfected mouse splenocytes, non-infected mouse splenocytes, read-out: CC50 (μM) Murine Splenocytes
Description: Finally, the cytotoxicity of the compounds was assessed on freshly-isolated mouse splenocytes, which were obtained from uninfected BALB/c mice according to the protocol previously described. Viability of uninfected splenocytes was used to determine the cytotoxic concentration 50 (CC50) by means of the Alamar Blue staining method, according to manufacturer's recommendations (Invitrogen). Selectivity index (SI) for each compound was calculated as the ratio between the CC50 value obtained for splenic cells and the EC50 value for amastigotes.

[2] = system: iRFP L. infantum promastigotes; test: Antileishmanial activity on free-living iRFP L. infantum promastigotes (infrared fluorescence viability); type: cell-based; conditions: Leishmania infantum, 72 h, 26 °C
Description: Histone phosphorylation assays were performed in promastigotes of L. infantum BCN 150 strain, whereas the antiparasitic activity of the compounds was assessed on the transgenic strain that constitutively expresses the irfp gene encoding the infrared iRFP protein (iRFP L. infantum strain) ([Calvo-Álvarez et al., 2015]), which is derived from L. infantum BCN 150. Both strains were grown at 26 °C in M-199 medium (Gibco) supplemented with 25 mM HEPES pH 7.2, 0.1 mM adenine, 0.0005% (w/v) hemin, 2 μg/mL biopterin, 0.0001% (w/v) biotin, 10% (v/v) heat-inactivated fetal bovine serum (FBS) and an antibiotic cocktail comprising 50 U/mL penicillin and 50 μg/mL streptomycin.
(§1) The antileishmanial activity of the compounds was tested both in promastigotes and in amastigotes infecting mouse splenocytes. For this purpose, 384-well optical bottom black plates (Thermo Scientific) were seeded either with free-living iRFP L. infantum promastigotes or with splenic explants infected with iRFP L. infantum amastigotes, which were incubated at 26 °C or 37 °C, respectively. The viability of both iRFP L. infantum stages was measured by recording the fluorescence emitted by viable cells at 708 nm in an Odyssey (Li-Cor) infrared imaging system after a 72-h period of incubation with different concentrations of the compounds. Dose-response curves were obtained by plotting the infrared fluorescence emission of viable parasites vs. different concentrations of testing compounds and were fitted by nonlinear analysis using the Sigma-Plot 10.0 statistical package. The reduction of infrared emission with respect to the negative control was used to determine the 50% effective concentration to kill the parasites (EC50). Both controls and treated groups were tested with DMSO (drug vehicle) concentrations below 0.1%. All compounds and controls were assayed in triplicate.

[3] = system: iRFP L. infantum amastigotes infecting mouse splenocytes; test: Antileishmanial activity on iRFP L. infantum amastigotes in ex vivo murine splenic explants; type: cell-based, Leishmania infantum; conditions: for SI (Selectivity Index): CC50 (splenocytes)/EC50 (amastigotes); for EC50: Leishmania infantum, Splenocyte, 72 h, read-out: EC50 (μM) L. infantum amastigotes
Description: Five-week BALB/c female mice infected intraperitoneally with 1.5 × 10^9 metacyclic iRFP L. infantum promastigotes were sacrificed to eviscerate their spleens, which were processed to obtain a suspension of primary splenocytes. Briefly, freshly dissected spleens were washed with cold phosphate-buffered saline (PBS), cut in small pieces and incubated for 20 min with 5 mL of 2 mg/mL collagenase D (Sigma) prepared in buffer (10 mM HEPES, pH 7.4, 150 mM NaCl, 5 mM KCl, 1 mM MgCl2 and 1.8 mM CaCl2). Then, the cell suspension was passed through a 100 μm cell strainer, harvested by centrifugation (500×g for 7 min at 4 °C), washed twice with PBS, and resuspended in RPMI medium (Gibco) supplemented with 10 mM HEPES, 1 mM sodium pyruvate, 1xRPMI 1640 vitamin mix, 10% (v/v) FBS, 50 U/mL penicillin and 50 μg/mL streptomycin. The cell suspension was cultured in 384-well optical bottom black plates (Thermo Scientific) at 37 °C under 5% CO2 atmosphere.
as §1

[4] = system: Leishmania topoisomerase IB (LTopIB); test: Relaxation of supercoiled pSK DNA by recombinant LTopIB; type: biochemical; set-up: key: +++: inhibition at 1 μM; ++: inhibition at 10 μM; +: inhibition at 100 μM; 0: no inhibition
Description: (§2) Expression and purification of LTopIB and hTopIB were carried out according to a previously standardized protocol ([Villa et al., 2003]). The effect of indenoisoquinolines (compounds 1 to 20) on recombinant LTopIB and hTopIB was determined by measuring the relaxation of negatively supercoiled pBluescript-SK DNA plasmid (pSK). Briefly, in a total volume of 20 μL, 100 U of recombinant TopIB were incubated with 0.5 μg of pSK DNA in 10 mM Tris-HCl buffer (pH 7.5), 5 mM MgCl2, 5 mM dithiothreitol (DTT), 0.1 mM EDTA, […] bovine serum albumin, and 150 mM KCl. Different concentrations of indenoisoquinolines were also added. Following a 4-min incubation period at 25 °C, reactions were stopped with 1% (w/v) SDS, and incubated for one extra hour at 37 °C in the presence of 1 mg/mL proteinase K. Subsequently, samples were extracted with 1 vol phenol-chloroform mixture and were loaded on a 1% agarose gel containing 0.1 μg/mL ethidium bromide. The gel was run for 16 h at 4 V/cm, and the images were acquired using a G-Box system (Syngene, United Kingdom).

human Top IB (hTopIB) = target: T1, human Top IB (hTopIB) (Homo sapiens, UniProt P11387); test: Relaxation of supercoiled pSK DNA by recombinant hTopIB; type: biochemical
T1 construct: made in house
T1 sequence (P11387 1-765): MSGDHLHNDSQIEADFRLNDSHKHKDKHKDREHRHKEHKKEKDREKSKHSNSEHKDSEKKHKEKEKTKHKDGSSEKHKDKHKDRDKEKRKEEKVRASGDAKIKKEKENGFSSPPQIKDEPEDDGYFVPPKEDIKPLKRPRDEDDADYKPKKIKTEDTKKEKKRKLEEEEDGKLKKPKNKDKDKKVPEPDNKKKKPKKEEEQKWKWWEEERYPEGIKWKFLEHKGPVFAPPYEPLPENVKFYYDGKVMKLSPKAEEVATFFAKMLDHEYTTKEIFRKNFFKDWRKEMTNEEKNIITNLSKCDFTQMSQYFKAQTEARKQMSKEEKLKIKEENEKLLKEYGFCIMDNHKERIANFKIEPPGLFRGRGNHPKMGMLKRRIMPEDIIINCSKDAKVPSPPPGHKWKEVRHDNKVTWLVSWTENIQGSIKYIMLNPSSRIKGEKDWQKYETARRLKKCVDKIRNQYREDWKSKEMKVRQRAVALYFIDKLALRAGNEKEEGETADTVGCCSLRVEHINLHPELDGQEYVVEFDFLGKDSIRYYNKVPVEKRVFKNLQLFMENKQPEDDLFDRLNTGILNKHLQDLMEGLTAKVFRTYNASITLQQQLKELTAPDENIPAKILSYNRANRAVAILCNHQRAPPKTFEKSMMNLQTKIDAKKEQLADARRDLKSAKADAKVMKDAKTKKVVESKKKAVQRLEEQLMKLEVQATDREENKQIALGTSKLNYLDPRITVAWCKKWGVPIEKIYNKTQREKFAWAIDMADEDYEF
Description: as §2

[5] = system: L. infantum promastigotes; test: Cell cycle analysis by flow cytometry (propidium iodide); type: cell-based, Leishmania infantum; conditions: 1 μM single dose, 0, 8, 24, 48 h
Description: One million promastigotes untreated or treated with 1 μM of different indenoisoquinolines were harvested by centrifugation after 0, 8, 24 and 48 h exposure. Promastigotes were washed twice with PBS and fixed by 1 h incubation with 70% methanol at 4 °C. After incubation, cells were centrifuged, washed again with PBS and resuspended in 0.5 mL of citrate buffer (45 mM MgCl2, 20 mM MOPS, 30 mM sodium citrate, 0.1% Triton X-100, pH = 7). Finally, samples with RNAase (50 μg/mL) and propidium iodide ([…]) were incubated at 37 °C during 30 min and analyzed at 589 nm by flow cytometry (Cyan ADP Dako).

[6] = splenic-infecting iRFP L. infantum amastigotes, 37 °C

Compound | CC50 [1] [µM] | EC50 [2] [µM] | SI (Selectivity Index) [3] | EC50 [3, 6] [µM] | LTopIB inhibition ([4]; Table 1) | hTopIB inhibition (human Top IB (hTopIB); Table 1) | effect on cell cycle of promastigotes [5] | EC50 [3] [µM] | LTopIB inhibition ([4]; Table 2) | hTopIB inhibition (human Top IB (hTopIB); Table 2) | LTopIB inhibition ([4]; Table 3) | hTopIB inhibition (human Top IB (hTopIB); Table 3)
C[C@@H]1[C@H](O)[C@@H](C)/C=C/C=C/C=C/C=C/C=C/C=C/C=C/[C@H](O[C@@H]2O[C@H](C)[C@@H](O)[C@H](N)[C@@H]2O)C[C@@H]2O[C@](O)(C[C@@H](O)C[C@@H](O)[C@H](O)CC[C@@H](O)C[C@@H](O)CC(=O)O[C@H]1C)C[C@H](O)[C@H]2C(=O)O [AMB, amphotericin B, reference compound] | > 20 | 0.8 ± 0.1 | >62 | 0.3 |  |  |  |  |  |  |  | 
NCCn1c2c(c3ccccc3c1=O)C(=O)c1ccccc1-2 [Compound 1] | 1.1 ± 0.06 | 0.94 ± 0.03 | 24.4 | 0.04 ± 0.09 | +++ (inhibition at 1 μM) | ++ (inhibition at 10 μM) |  |  |  |  |  | 
COc1ccc2c(c1)C(=O)c1c-2n(CCCN)c(=O)c2cc([N+](=O)[O-])ccc12 [Compound 3] | 0.41 ± 0.19 | 0.2 ± 0.01 |  | > 10 | ++ (inhibition at 10 μM) | +++ (inhibition at 1 μM) | arrested the cell cycle of promastigotes in S phase |  |  |  |  | 
COC(=O)c1ccc2c(c1)C(=O)c1c-2n(CCCN)c(=O)c2cc([N+](=O)[O-])ccc12 [Compound 4] | 0.59 ± 0.02 | 1.1 ± 0.07 | 4.2 | 0.14 ± 0.08 | ++ (inhibition at 10 μM) | +++ (inhibition at 1 μM) |  |  |  |  |  | 
CCOc1ccc2c(c1)C(=O)c1c-2n(CCCN)c(=O)c2cc([N+](=O)[O-])ccc12 [Compound 5] | 0.35 ± 0.03 | 0.54 ± 0.05 | 4.4 | 0.08 | ++ (inhibition at 10 μM) | +++ (inhibition at 1 μM) |  |  |  |  |  | 
NCCCn1c2c(c3ccc([N+](=O)[O-])cc3c1=O)C(=O)c1cc(Br)ccc1-2 [Compound 6] | 0.81 ± 0.09 | 0.52 ± 0.03 | 6.2 | 0.13 ± 0.03 | +++ (inhibition at 1 μM) | +++ (inhibition at 1 μM) |  |  |  |  |  | 
NCCCn1c2c(c3ccc([N+](=O)[O-])cc3c1=O)C(=O)c1cc3c(cc1-2)OCO3 [Compound 8] | 0.05 ± 0.01 | 0.06 ± 0.01 | 2.8 | 0.02 ± 0.05 | +++ (inhibition at 1 μM) | +++ (inhibition at 1 μM) |  |  |  |  |  | 
NCCCCn1c2c(c3ccccc3c1=O)C(=O)c1ccccc1-2 [Compound 9] | 2.11 ± 0.22 | 0.43 ± 0.08 |  |  | +++ (inhibition at 1 μM) | +++ (inhibition at 1 μM) |  | 0.73 ± 0.01 |  |  |  | 
NCCCCCn1c2c(c3ccccc3c1=O)C(=O)c1ccccc1-2 [Compound 10] | 1.35 ± 0.19 | 2.4 ± 1.03 |  | 2.29 ± 1.05 | +++ (inhibition at 1 μM) | +++ (inhibition at 1 μM) |  |  |  |  |  | 
O=C1c2ccccc2-c2c1c1ccc([N+](=O)[O-])cc1c(=O)n2CCCn1ccnc1 [Compound 11] | 0.71 ± 0.01 | 0.45 ± 0.5 | 11 | 0.06 ± 0.02 |  |  |  |  | +++ (inhibition at 1 μM) | +++ (inhibition at 1 μM) |  | 
COc1ccc2c(c1)C(=O)c1c-2n(CCCn2ccnc2)c(=O)c2cc([N+](=O)[O-])ccc12 [Compound 12] | 0.33 ± 0.05 | > 10 | 33 | 0.01 |  |  | arrested the cell cycle of promastigotes in S phase |  | ++ (inhibition at 10 μM) | +++ (inhibition at 1 μM) |  | 
O=C1c2cccnc2-c2c1c1ccccc1c(=O)n2CCCn1ccnc1 [Compound 13] | 2.4 ± 0.35 | 2.89 ± 0.14 | 4.1 | 0.59 ± 0.6 |  |  |  |  | + (inhibition at 100 μM) | ++ (inhibition at 10 μM) |  | 
COc1cc2c3c(n(CCCn4ccnc4)c(=O)c2cc1OC)-c1cc2c(cc1C3=O)OCO2 [Compound 14] | 0.03 | 1.85 ± 0.18 | 3.0 | 0.01 |  |  |  |  | 0 | +++ (inhibition at 1 μM) |  | 
O=C1c2ccccc2-c2c1c1ccc([N+](=O)[O-])cc1c(=O)n2CCCN1CCOCC1 [Compound 15] | 18 ± 5.3 | > 10 | 30 | 0.6 ± 0.42 |  |  |  |  |  |  | 0 | +++ (inhibition at 1 μM)
COc1ccc2c(c1)C(=O)c1c-2n(CCCN2CCOCC2)c(=O)c2cc([N+](=O)[O-])ccc12 [Compound 16] | 0.59 ± 0.08 | > 10 |  | 1.86 ± 0.29 |  |  |  |  |  |  | 0 | +++ (inhibition at 1 μM)
